Measurements reported in patent US11202814B2, “Compositions for atopic skin” (INFINITEC ACTIVOS, S.L., priority 2018, dated 2021).

Tested on: PGE2 release
Test: Inhibitory effect on PGE2 release in cell culture, inflammation induced by IL1a
Format: cell-based, human
Description: The inhibitory effect on IL1a inflammatory induction of the non-encapsulated composition of Pinus pinaster bark extract and curcumin, capsules loaded with Pinus pinaster bark extract and curcumin, unloaded capsules, non-encapsulated composition of Pinus pinaster bark extract and non-encapsulated composition of curcumin were analysed on human dermal fibroblasts.
Human dermal fibroblasts (LIFE TECHNOLOGIES), seeded in a 96-well plate up to 80% confluency, were treated with the following compositions dissolved in medium DMEM (Dulbecco's Modified Eagle Medium) to a total volume of 1 ml: • a) pine bark extract (1%) • b) curcumin (0.01%) • c) Phosphotech phospholipids (having the same composition has described in example 2) (4%) • d) curcumin (0.01%)+pine bark extract (1%) • e) capsules (curcumin (0.01%)+pine bark extract (1%)+Phosphotech phospholipids (having the same composition has described in example 2) (4%)) for 48 hours. […] After 24 hours inhibitory effect on PGE2 in culture cell was measured using prostaglandin E2 EIA kit (Prostaglandin E2 EIA kit—Monoclonal (Item: 514010) Cayman Chemical).
The results are provided in Table 4 below wherein the PGE2 release is expressed in pg/ml. The reduction vs IL1a-induced fibroblasts is calculated as the result of PGE2 obtained for each treatment/the result of PGE2 obtained for IL1a-induced fibroblasts (without any treatment). […]

curcumin [Composition b]
Calculated reduction vs IL1a-induced fibroblasts (PGE2 of treatment / PGE2 of IL1a-induced fibroblasts (2170 pg/ml)): 0.232
PGE2 (human dermal fibroblasts treated 48 hours, IL1a 5 pM, untreated IL1a-induced fibroblasts 2170, control 471 pg/ml): 503 pg/mL
